Measurements as given in US6391924B1, “Taurine derivatives useable in the treatment of ophthalmic disorders” (priority 1997, dated 2002).

Tests used:
solubility in water = type: physicochemical
Description: The all-trans isomer of retinyliden tauret (i.e., all-trans-3,7-dimethyl-9-(2,6,6-trimehyl-1-cyclohexen-1-yl)-2,4,6,8-nonatetraen-1-imido-(N-sulfonic acid) prepared in this example has the following characterization: a) Absorbency Max […]., b) Extinction Coefficient at […] is 40200, c) upon protonation the absorbency Max shifts to 444 um, d) the Extinction Coefficient at 444 um is 40050 e) Melting Point is 115 C., -116° C. and soluability in water is 200 mg/ml.

frog retinas = conditions: in vitro; cited from earlier work

Row | soluability in water (solubility in water) [mg/mL] | Compound | photoprotective effects (frog retinas)
1 | 200 | CC1=C(/C=C/C(C)=C/C=C/C(C)=C/C=NCCS(=O)(=O)O)C(C)(C)CCC1 (single isomer, unassigned) [all-trans isomer of retinyliden tauret, all-trans-3,7-dimethyl-9-(2,6,6-trimehyl-1-cyclohexen-1-yl)-2,4,6,8-nonatetraen-1-imido-(N-ethanesulfonic acid)] | –
2 | – | CC(C=CC1=C(C)CCCC1(C)C)=CC=CC(C)=CC=NCCS(=O)(=O)O [retinyliden tauret, 3,7-dimethyl-9-(2,6,6-trimehyl-1-cyclohexen-1-yl)-2,4,6,8-nonatetraen-1-imido-(N-ethanesulfonic acid)] | some photoprotective effects
